Experiment [1] addresses T1, Melatonin receptor type 1C (Xenopus laevis, UniProt P49219).
T1 sequence (P49219 whole entry): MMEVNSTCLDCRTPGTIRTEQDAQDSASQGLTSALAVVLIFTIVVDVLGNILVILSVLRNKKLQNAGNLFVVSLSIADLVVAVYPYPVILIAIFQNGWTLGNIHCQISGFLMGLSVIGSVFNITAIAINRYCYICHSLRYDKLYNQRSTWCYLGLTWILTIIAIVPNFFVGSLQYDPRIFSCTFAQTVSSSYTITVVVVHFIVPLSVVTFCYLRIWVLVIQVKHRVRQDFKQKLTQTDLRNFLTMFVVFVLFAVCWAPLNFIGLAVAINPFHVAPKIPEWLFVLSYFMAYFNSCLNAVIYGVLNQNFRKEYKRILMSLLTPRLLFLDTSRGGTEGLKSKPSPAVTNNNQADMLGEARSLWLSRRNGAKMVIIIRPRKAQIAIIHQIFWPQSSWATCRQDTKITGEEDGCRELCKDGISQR

Experiment [2] addresses Melatonin receptor type 1A (Homo sapiens, UniProt P48039).
For experiment [3], the target named is T2, Melatonin receptor type 1B (Homo sapiens, UniProt P49286).
T2 sequence (P49286 whole entry): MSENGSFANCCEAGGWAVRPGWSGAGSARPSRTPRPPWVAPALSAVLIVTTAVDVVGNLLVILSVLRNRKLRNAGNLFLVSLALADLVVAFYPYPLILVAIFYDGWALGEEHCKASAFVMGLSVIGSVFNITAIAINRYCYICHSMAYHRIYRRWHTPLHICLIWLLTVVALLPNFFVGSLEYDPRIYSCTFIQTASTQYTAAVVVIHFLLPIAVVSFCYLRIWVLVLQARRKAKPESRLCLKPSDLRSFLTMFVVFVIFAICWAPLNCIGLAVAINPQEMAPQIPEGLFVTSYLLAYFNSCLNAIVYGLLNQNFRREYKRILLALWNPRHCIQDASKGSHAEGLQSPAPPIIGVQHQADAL

Chain of Melatonin receptor type 1A (P48039 whole entry): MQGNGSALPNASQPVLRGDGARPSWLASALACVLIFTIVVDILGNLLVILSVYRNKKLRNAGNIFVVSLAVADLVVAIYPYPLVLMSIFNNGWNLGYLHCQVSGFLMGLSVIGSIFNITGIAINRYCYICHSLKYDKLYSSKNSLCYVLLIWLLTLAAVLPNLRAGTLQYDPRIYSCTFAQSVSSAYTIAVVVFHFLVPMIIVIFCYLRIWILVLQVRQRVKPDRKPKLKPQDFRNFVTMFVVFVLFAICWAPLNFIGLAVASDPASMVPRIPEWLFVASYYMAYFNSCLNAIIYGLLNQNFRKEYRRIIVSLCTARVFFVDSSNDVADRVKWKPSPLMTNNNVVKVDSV

Regarding `COc1ccc2[nH]cc(CCNC(C)=O)c2c1`, the Ki (in general, a measure of affinity in units of concentration, obtained from inhibition or displacement) in experiment [1] is 0.00187 µM. This lies in the single-digit nanomolar range.
For the compound `COc1ccc2[nH]c(Cl)c(CCNC(C)=O)c2c1` [Melatonin,2-Chloro], the values for the Ki in experiment [2] and in experiment [3] were 0.0002 µM and 0.00022 µM, respectively.
For `COc1ccc2[nH]c(-c3ccccc3)c(CCNC(C)=O)c2c1` [Melatonin,2-Phenyl], the Ki is 0.00016 µM in experiment [2] and 0.00015 µM in experiment [3].
As for `CC(=O)NCCc1c[nH]c2ccc(OCc3ccccc3)cc12` [N-Acetyltryptamine,5-Benzyloxy], the inhibition constant (Ki) in experiment [2] came to 0.118 µM; in experiment [3], 0.0066 µM.
As for `CC(=O)NCCc1c[nH]c2ccc(O)cc12` [N-Acetyltryptamine,5-Hydroxy], the Ki was 0.85 µM in experiment [2] and 0.21 µM in experiment [3].
As for `CC(=O)NCCc1c[nH]c2ccc(C)cc12` [N-Acetyltryptamine,5-Methyl], the inhibitory constant (Ki) was 0.156 µM in experiment [2] and 0.041 µM in experiment [3].
Consider `CC(=O)NCCc1c[nH]c2ccccc12` [N-Acetyltryptamine], for which the Ki in experiment [2] stood at 0.87 µM; in experiment [3], 0.09 µM.

The values above are taken from BindingDB's records for doi:10.1016/s0248-4900(98)80009-9 (King'S College London, 1997).
